What is called melting point is the temperature of the solid-liquid transition.

Structures are written as SMILES.

The target of one series is T1, PDGFβR (Mus musculus, UniProt P05622).
T1 construct: A preparation of purified PDGFR from Swiss 3T3 cell membranes was used; endogenous in cells
The series can be described thus: PDGF-induced PDGFβR autophosphorylation in intact Swiss 3T3 cells (FIG. 8). The format is cell-based. To be noted: at 1 μM. As to the method: Kinase reactions, using an isolated PDGFβR preparation, in the presence of 0.03-3 μM tyrphostin, were conducted, utilizing [γ-^32P]ATP as probe. Densitometric evaluation, relative to control lacking the tyrphostin inhibitor (100%), results in the percent autokinase activity, presented in Table 8 and in the dose-response curves for the purified transoid isomers AG2033 (FIG. 6) and AG2043 (FIG. 7). Further comparison between the resulting autoradiogrms for each pair of geometrical isomers AG2033 and AG2034 (upper panel); AG2043 and AG2044 (lower panel), for their inhibitory activity towards PDGF-induced PDGFβR autophosphorylation (concentration range: 0.1-10 μM) in intact cells is presented in FIG. 8. […] Similar potency relation exists between the AG2043 and AG2044 isomers.

The test system of series [1] is PAEC/PDGFR cells. In words: Proliferation of PDGFβR transfected PAEC cells ([3H]thymidine incorporation). The format is cell-based, porcine. Particulars: Sus scrofa, read-out: IC50 (50% inhibition of proliferation) PDGFβR. As to the method: (§1) Porcine aortic endothelial cells (PAEC), stably transfected with either PDGF-receptor (PAEC/PDGFβR cells, kindly provided by Dr. L. Claesson-Welsh, Uppsala, Sweden) or VEGF-receptor KDR (PAEC/KDR), respectively, were used as previously described. Cells were routinely cultured in Ham's F-12 medium supplemented with geneticin (0.4 mg/ml) and 10% FCS.
(§2) Assessment of cell proliferation ([^3H]thymidine incorporation assay): PAEC/KDR and PAEC/PDGFR cells, grown in Ham's F12 medium containing 10% FCS were seeded sparsely in 12 well culture dishes. After 24 hours, cells were washed two times with Ham's F12 medium containing 1% FCS and incubated for additional 48 hours with one renewal of medium. Cells were incubated for 15 minute with different concentrations of AG2033 (0.1; 1 and 10 μM) or with the solvent DMSO alone, stimulated with 3 ng/ml VEGF or with 15 ng/ml PDGF-BB for 20 hours, followed by addition of 0.25 μCi of [^3H]-thymidine/ml (Amersham) for two hours. High molecular weight [^3H]-radioactivity was precipitated using 5% trichloroacetic acid at 4° C. for 30 minutes. After two washes with ice-cold H2O, [^3H]-radioactivity was solubilized in 1 M NaOH (400 μl/well) at room temperature for 8 minutes, neutralized by the addition of 2 M HCL (400 μl/well), and quantitated by liquid scintillation counting. […]
(Uptake of a labelled nucleoside into DNA is a usual measure of proliferation.)

The test system of series [2] is PAEC/KDR cells. In words: Proliferation of KDR transfected PAEC cells ([3H]thymidine incorporation). It counts as cell-based, porcine. Particulars: Sus scrofa, read-out: IC50 (50% inhibition of proliferation) KDR. As to the method:
as §1, §2

Series [3] relates to PAEC/KDR cells. In words: Migration of KDR transfected PAEC cells toward VEGF (Boyden chamber). It counts as cell-based, porcine. To be noted: Sus scrofa, VEGF 10 ng/ml, read-out: IC50 (50% inhibition of migration) KDR. As to the method:
(§3) Assessment of cell migration (Chemotaxis assay): The chemotactic response of HCASMC, PAEC/KDR and PAEC/PDGFR cells was assessed using the modified Boyden chamber (Neuro Probe, Inc.) and collagen-coated polycarbonate filters (Nucleopore) with pore diameters of 8 μm as previously described. Briefly, PAEC/KDR and PAEC/PDGFR cells were cultivated and assayed in Ham's F12 medium containing 10% FCS. HCASMC were cultivated in SmGM-2 (clonetics) and assayed in SmBM-WM containing 10% FCS and 0.1% BSA. To the medium in the lower part of the Boyden chamber, either VEGF or PDGF-BB (10 ng/ml, respectively) were added. AG2033 was added to both upper and lower chamber parts. Suspended cells were given 4 hours for migration, after a preincubation period of 15 minute in AG2033. The number of cells that migrated without PDGF-BB or VEGF stimulation was referred to as 100% migration (chemokinesis). The assay was performed in triplicate, and five medium-power fields were counted per well using a light microscope (Jenalab).
(§4) Evaluation of PDGFβR or KDR stably transfected PAEC cells migration toward the respective growth factors, PDGD-BB and VEGF (10 ng/ml, respectively), in the presence of the purified AG2033 isomer, was conducted in a Boyden chamber (see experimental section, above). […]

The test system of series [4] is PAEC/PDGFR cells. In words: Migration of PDGFβR transfected PAEC cells toward PDGF-BB (Boyden chamber). To be noted: Sus scrofa, PDGF-BB 10 ng/ml, read-out: IC50 (50% inhibition of migration) PDGFβR. The format is cell-based, porcine. As to the method:
as §3, §4

In a further series the test system is porcine SMC. In words: Inhibition of SMC proliferation and recovery (cell count). Particulars: 10 μM. The format is cell-based. As to the method: Smooth muscle cells (SMC) were obtained under aseptic conditions from porcine abdominal aortas. Each artery was cut open and the endothelial surface mechanically scraped. The vessels were then cut into 2 mm^2 fragments which were placed in culture dishes with Dulbecco's modified Eagle's medium (DMEM) supplemented with 15% (v/v) fetal calf serum (FCS), 100 u/ml penicillin, 100 μg/ml streptomycin, and […]. The tissue fragments were then placed in an incubator at 37° C. under 9% CO2 atmosphere until SMC outgrowth was detected (typically within 3-7 days). […] For experiments testing the effect of tyrphostins on growth inhibition and recovery (see below), SMC from passages 1-3 were replated in 15 mm wells pretreated with 3 μg/cm^2 fibronectin (Biological Industries, Kibbutz Beit Haemek, Israel) at 15,000 cells/well.
Inhibition of cell proliferation and recovery: Monolayer cell growth inhibition and recovery experiments were repeated 3 or 4 times. Each experiment was performed in triplicate. Approximately 15,000 cells (SMC or PAEC) in 1 ml of culture medium supplemented with either 15% FCS (SMC) or 10% FCS (PAEC) were seeded on day 0 in 15 mm-wells precoated with fibronectin (SMC) or uncoated (PAEC). Cultures were treated with 10 μM of the following tyrphostin compounds: AG2033, AC2034, AG2043 and AG2044 (for SMC) or AG2033 (for PAEC) dissolved in 0.1% DMSO on days 1 and 3. On day 7, cultures were washed and the cells allowed to recover. Typically cells were counted on days 3 and 6 for inhibition, and on day 13 for recovery. The medium supplemented with serum (DMEM for SMC and Ham's F12 for PAEC) was changed every other day throughout the experiment.
Cells were grown in the presence of the specified tyrphostins and were counted on days 3, 6 and 13 in culture. On day 7 the cultures were washed and the cells allowed to recover. […] The inhibitory effect of all three compounds was reversible, and the cells resumed normal growth response as soon as the treatment with the tyrphostins was withdrawn.

T1 sequence (P05622 32-1098): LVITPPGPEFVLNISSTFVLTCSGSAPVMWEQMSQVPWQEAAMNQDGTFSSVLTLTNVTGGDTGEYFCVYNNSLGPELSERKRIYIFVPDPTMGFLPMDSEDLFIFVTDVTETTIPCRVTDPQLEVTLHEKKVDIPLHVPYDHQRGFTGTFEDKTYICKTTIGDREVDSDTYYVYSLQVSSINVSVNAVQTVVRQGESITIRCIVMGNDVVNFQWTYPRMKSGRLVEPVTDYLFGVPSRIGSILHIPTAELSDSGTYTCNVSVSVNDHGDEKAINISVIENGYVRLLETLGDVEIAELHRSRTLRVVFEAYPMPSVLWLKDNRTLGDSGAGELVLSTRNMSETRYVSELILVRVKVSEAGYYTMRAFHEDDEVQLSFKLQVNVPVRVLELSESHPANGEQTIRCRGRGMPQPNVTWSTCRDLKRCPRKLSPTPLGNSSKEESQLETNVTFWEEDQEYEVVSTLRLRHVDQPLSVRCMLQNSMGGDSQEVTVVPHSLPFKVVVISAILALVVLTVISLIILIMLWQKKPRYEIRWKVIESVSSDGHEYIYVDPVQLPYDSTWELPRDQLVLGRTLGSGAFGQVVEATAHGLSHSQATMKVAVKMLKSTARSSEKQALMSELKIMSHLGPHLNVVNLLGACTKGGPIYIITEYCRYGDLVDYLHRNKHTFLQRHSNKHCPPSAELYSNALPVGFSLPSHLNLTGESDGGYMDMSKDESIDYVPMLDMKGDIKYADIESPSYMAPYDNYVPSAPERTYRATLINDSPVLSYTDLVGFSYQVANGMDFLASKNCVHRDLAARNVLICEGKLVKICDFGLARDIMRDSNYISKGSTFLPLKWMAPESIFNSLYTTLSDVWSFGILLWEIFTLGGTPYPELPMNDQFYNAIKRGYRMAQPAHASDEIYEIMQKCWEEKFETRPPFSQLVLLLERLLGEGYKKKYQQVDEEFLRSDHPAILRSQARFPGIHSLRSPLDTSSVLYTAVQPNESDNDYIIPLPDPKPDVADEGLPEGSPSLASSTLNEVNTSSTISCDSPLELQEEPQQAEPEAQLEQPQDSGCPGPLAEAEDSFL

On to `Cc1nc2cc3nc(-c4ccccc4)cnc3cc2n1C` [AG2033, 1,2-dimethyl-6-phenyl imidazolo[5,4-g]quinoxaline], for which the melting point was 275 °C. Moreover, on PDGFβR, the “inhibitory activity towards PDGF-induced PDGFβR autophosphorylation in intact cells” value is “marked inhibitory activity”. Besides, the IC50 in the series with PAEC/PDGFR cells [1] amounted to 2.5 µM. Also, the IC50 in the series with PAEC/KDR cells [2] was greater than 10 µM. Moreover, in the series with PAEC/KDR cells [3], the IC50 was greater than 10 µM. The IC50 in the series on PAEC/PDGFR cells [4] came out at 5 µM.

In the case of `Cc1nc2cc3nc(-c4cccs4)cnc3cc2n1C` [AG2043, 1,2-dimethyl-6-(2-thiophene) imidazolo[5,4-g]quinoxaline], the “toxic effect on the cells” value in the series with porcine SMC (SMC) is “without having a substantial toxic effect”. Also, in the series with porcine SMC (compared to DMSO treated control cells), the “mean reduction in SMC count by day 3” value is recorded as 46%. Further, the “reversibility of the inhibitory effect on SMC proliferation” value in the series with porcine SMC (cultures washed on day 7, recovery counted day 13) is “completely reversible”.

The values are drawn from patent publication US6673798B2, “PDGF receptor kinase inhibitory compounds, their preparation, purification and pharmaceutical compositions including same” (Yissum Research Development Company of the Hebrew …, priority 1999, dated 2004).
